Laboratory results as given in patent publication US9302999B2, “Substituted triazoles as herbicides” (E. I. DU PONT DE NEMOURS AND COMPANY, priority 2012, dated 2016).

Experiments:
Type in all cases: in vivo
[1] = system: barnyardgrass (Echinochloa crus-galli); test: Test F pre-/postemergence: barnyardgrass
How it was run: (§1)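 0–100 visual control scores, taken 14–21 d after application in the greenhouse. Preemergence treatment was made to silt loam soil at sowing. Postemergence sprays hit 1- to 4-leaf plants (2–18 cm) in peat/vermiculite mix. Surfactant-containing non-phytotoxic solvent served as the vehicle.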

[2] = system: poinsettia, wild (wild poinsettia, Euphorbia heterophylla); test: Test F pre-/postemergence: poinsettia, wild
How it was run: as §1

[3] = system: crabgrass, Brazil (Brazilian crabgrass, Digitaria horizontalis); test: Test F pre-/postemergence: crabgrass, Brazil
Source text: Seeds of plant species selected from corn (Zea mays), soybean (Glycine max), velvetleaf (Abutilon theophrasti), lambsquarters (Chenopodium album), poinsettia, wild (wild poinsettia, Euphorbia heterophylla), pigweed, palmer (palmer pigweed, Amaranthus palmeri), waterhemp (common waterhemp, Amaranthus rudis), surinam grass (Brachiaria decumbens), crabgrass, Brazil (Brazilian crabgrass, Digitaria horizontalis), panicum, fall (fall panicum Panicum dichotomiflorum), crabgrass, large (large crabgrass, Digitaria sanguinalis), foxtail, giant (giant foxtail, Setaria faberii), foxtail, green (green foxtail Setaria viridis), goosegrass (Eleusine indica), ragweed (common ragweed, Ambrosia elatior), barnyardgrass (Echinochloa crus-galli), sandbur (southern sandbur, Cenchrus echinatus), arrowleaf sida (Sida rhombifolia), ryegrass, Italian (Italian ryegrass, Lolium multiflorum), dayflower, VA (Virginia (VA) dayflower, Commelina virginica), field bindweed (Convolvulus arvensis), cocklebur (common cocklebur, Xanthium strumarium), morningglory (Ipomoea coccinea), nightshade (eastern black nightshade, Solanum ptycanthum), kochia (Kochia scoparia), nutsedge, yellow (yellow nutsedge, Cyperus esculentus), johnsongrass (Sorghum halepense), smartweed (ladysthumb smartweed, Polygonum persicaria), and beggarticks (hairy beggarticks, Bidens pilosa), were planted into a silt loam soil and treated preemergence with test chemicals formulated in a non-phytotoxic solvent mixture which included a surfactant. At the same time, plants selected from these crop and weed species and also pigweed (Amaranthus retroflexus), waterhemp_RES1 (ALS/Triazine resistant common waterhemp, Amaranthus rudis) and waterhemp_RES2 (ALS/HPPD resistant common waterhemp, Amaranthus rudis) were planted in pots containing a planting medium comprising spaghnum peat moss, vermiculite, wetting agent and starter nutrients treated with postemergence applications of some of the test chemicals formulated in the same manner. Plants ranged in height from 2 to 18 cm for postemergence treatments (1- to 4-leaf stage).
Treated plants and controls were maintained in a greenhouse for 14 to 21 days, after which time all species were compared to controls and visually evaluated. Plant response ratings, summarized in Table E, are based on a scale of 0 to 100 where 0 is no effect and 100 is complete control. A dash (-) response means no test result.

[4] = system: oilseed rape (Brassica napus); test: Test D pre-/postemergence: oilseed rape
How it was run: (§2)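 Scores run from 0 (no effect) to 100 (complete control), assigned by visual comparison with controls after 14 to 21 days in a controlled environment. Both preemergence application to silt loam and postemergence application to 1- to 4-leaf plants were tested.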

[5] = system: pigweed (Amaranthus retroflexus); test: Test D pre-/postemergence: pigweed
How it was run: as §2

[6] = system: galium (catchweed bedstraw, Galium aparine); test: Test D pre-/postemergence: galium; details: Postemergence
How it was run: as §2

[7] = system: foxtail, green (green foxtail, Setaria viridis); test: Test D pre-/postemergence: foxtail, green
How it was run: as §2

[8] = Postemergence, 8 g ai/ha, scale 0 to 100
[9] = Postemergence, 16 g ai/ha, scale 0 to 100
[10] = Postemergence, 31 g ai/ha, scale 0 to 100
[11] = Postemergence, 62 g ai/ha, scale 0 to 100
[12] = Postemergence, 125 g ai/ha, scale 0 to 100
[13] = Postemergence, 31 g ai/ha, scale 0 to 100 (0 no effect, 100 complete control)
[14] = Postemergence, 62 g ai/ha, scale 0 to 100 (0 no effect, 100 complete control)
[15] = Postemergence, 125 g ai/ha, scale 0 to 100, 0 no effect, 100 complete control
[16] = Preemergence, 16 g ai/ha, scale 0 to 100, 0 no effect, 100 complete control
[17] = Preemergence, 31 g ai/ha, scale 0 to 100, 0 no effect, 100 complete control
[18] = Preemergence, 62 g ai/ha, scale 0 to 100
[19] = Preemergence, 125 g ai/ha, scale 0 to 100
[20] = Preemergence, 250 g ai/ha, scale 0 to 100

With Cc1nn(-c2ccnc(Cl)c2)nc1Cc1ccnc(C(F)(F)F)c1 [Compound 141] the “Plant response rating, Barnyardgrass” value [1, 8] was 10, the “Plant response rating, Barnyardgrass” value [1, 9] was 20 and the “Plant response rating, Barnyardgrass” value [1, 10] was 20. For the same molecule, the “Plant response rating, Barnyardgrass” value [1, 11] was 30, the “Plant response rating, Barnyardgrass” value [1, 12] was 40 and the “Plant response rating, Poinsettia, Wild” value [2, 8] was 60. The “Plant response rating, Poinsettia, Wild” value [2, 9] was 80, the “Plant response rating, Poinsettia, Wild” value [2, 10] was 85 and the “Plant response rating, Poinsettia, Wild” value [2, 11] was 95. The “Plant response rating, Poinsettia, Wild” value [2, 12] was 98, the “Plant response rating, Crabgrass, Brazil” value [3, 8] was 70 and the “Plant response rating, Crabgrass, Brazil” value [3, 9] was 80. For the same molecule, the “Plant response rating, Crabgrass, Brazil” value [3, 10] was 95, the “Plant response rating, Crabgrass, Brazil” value [3, 11] was 95 and the “Plant response rating, Crabgrass, Brazil” value [3, 12] was 95.
With Cc1nn(-c2ccc(C(F)(F)F)c(F)c2)nc1Oc1ccnc(C(F)(F)F)c1 [Compound 148] the “Plant response rating: Oilseed Rape” value [4, 13] was 35, the “Plant response rating: Oilseed Rape” value [4, 14] was 80 and the “Plant response rating: Oilseed Rape” value [4, 15] was 100. For the same molecule, the “Plant response rating, Oilseed Rape” value [4, 9] was 30, the “Plant response rating, Oilseed Rape” value [4, 16] was 5 and the “Plant response rating, Oilseed Rape” value [4, 17] was 0. The “Plant response rating, Oilseed Rape” value [4, 18] was 10, the “Plant response rating, Oilseed Rape” value [4, 19] was 20 and the “Plant response rating, Barnyardgrass” value [1, 16] was 0. The “Plant response rating, Barnyardgrass” value [1, 17] was 0, the “Plant response rating, Barnyardgrass” value [1, 18] was 0 and the “Plant response rating, Barnyardgrass” value [1, 19] was 20. The “Plant response rating, Barnyardgrass” value [1, 20] was 98, the “Plant response rating: Pigweed” value [5, 13] was 85 and the “Plant response rating: Pigweed” value [5, 14] was 95. The “Plant response rating: Pigweed” value [5, 15] was 95, the “Plant response rating, Pigweed” value [5, 9] was 70 and the “Plant response rating, Pigweed” value [5, 16] was 15. The “Plant response rating, Pigweed” value [5, 17] was 70, the “Plant response rating, Pigweed” value [5, 18] was 85 and the “Plant response rating, Pigweed” value [5, 19] was 100. The “Plant response rating: Galium” value ([6]; 31 g ai/ha, scale 0 to 100 (0 no effect, 100 complete control)) was 70, the “Plant response rating: Galium” value ([6]; 62 g ai/ha, scale 0 to 100 (0 no effect, 100 complete control)) was 70 and the “Plant response rating: Galium” value ([6]; 125 g ai/ha, scale 0 to 100, 0 no effect, 100 complete control) was 75. For the same molecule, the “Plant response rating, Galium” value ([6]; 16 g ai/ha, scale 0 to 100) was 60, the “Plant response rating, Poinsettia, Wild” value [2, 16] was 0 and the “Plant response rating, Poinsettia, Wild” value [2, 17] was 0. For the same molecule, the “Plant response rating, Poinsettia, Wild” value [2, 19] was 20, the “Plant response rating, Poinsettia, Wild” value [2, 20] was 100 and the “Plant response rating, Crabgrass, Brazil” value [3, 16] was 100. For the same molecule, the “Plant response rating, Crabgrass, Brazil” value [3, 17] was 100, the “Plant response rating, Crabgrass, Brazil” value [3, 18] was 100 and the “Plant response rating, Crabgrass, Brazil” value [3, 19] was 100. The “Plant response rating, Crabgrass, Brazil” value [3, 20] was 100, the “Plant response rating: Foxtail, Green” value [7, 13] was 15 and the “Plant response rating: Foxtail, Green” value [7, 14] was 50. For the same molecule, the “Plant response rating: Foxtail, Green” value [7, 15] was 60, the “Plant response rating, Foxtail, Green” value [7, 9] was 15 and the “Plant response rating, Foxtail, Green” value [7, 16] was 15. For the same molecule, the “Plant response rating, Foxtail, Green” value [7, 17] was 50, the “Plant response rating, Foxtail, Green” value [7, 18] was 70 and the “Plant response rating, Foxtail, Green” value [7, 19] was 100.
In the case of CCc1nn(-c2ccc(F)cc2)nc1Cc1ccnc(C(F)(F)F)c1 [Compound 154], the “Plant response rating, Barnyardgrass” value [1, 16] was 0, the “Plant response rating, Barnyardgrass” value [1, 17] was 5 and the “Plant response rating, Barnyardgrass” value [1, 18] was 85. For the same molecule, the “Plant response rating, Barnyardgrass” value [1, 19] was 90, the “Plant response rating, Barnyardgrass” value [1, 20] was 100 and the “Plant response rating, Poinsettia, Wild” value [2, 16] was 0. For the same molecule, the “Plant response rating, Poinsettia, Wild” value [2, 17] was 0, the “Plant response rating, Poinsettia, Wild” value [2, 19] was 25 and the “Plant response rating, Poinsettia, Wild” value [2, 20] was 85. The “Plant response rating, Crabgrass, Brazil” value [3, 16] was 75, the “Plant response rating, Crabgrass, Brazil” value [3, 17] was 100 and the “Plant response rating, Crabgrass, Brazil” value [3, 18] was 100. For the same molecule, the “Plant response rating, Crabgrass, Brazil” value [3, 19] was 100 and the “Plant response rating, Crabgrass, Brazil” value [3, 20] was 100.
